Reference: US9434727B2, “Substituted 4-phenylpiperidines, their preparation and use” (THE TRUSTEES OF COLUMBIA UNIVERSITY IN THE CITY OF NEW YORK, priority 2014, dated 2016)

Columns and labels:
RBP4-TTR interaction = RBP4-TTR interaction (Homo sapiens (Human), UniProt P02753); assay: TR-FRET (HTRF) assay for retinol-induced RBP4-TTR interaction; type: biochemical; conditions: in the presence of 1 μM retinol; read-out: HTRF assay for antagonists of RBP4-TTR interaction: IC50
From the text: TR-FRET assay for retinol-induced RBP4-TTR interaction Binding of a desired RBP4 antagonist displaces retinol and induces hindrance for RBP4-TTR interaction resulting in the decreased FRET signal (FIG. 7). Bacterially expressed MBP-RBP4 and untagged TTR were used in this assay. […] Following cell lysis, recombinant RBP4 was purified from the soluble fraction using the ACTA FPLC system (GE Healthcare) equipped with the 5-ml the MBP Trap HP column. Human untagged TTR was purchased from Calbiochem. Untagged TTR was labeled directly with Eu^3+ Cryptate-NHS using the HTRF Cryptate Labeling kit from CisBio following the manufacturer's recommendations. HTRF assay was performed in white low volume 384 well plates (Greiner-Bio) in a final assay volume of 16 μl per well. The reaction buffer contained 10 mM Tris-HCl pH 7.5, 1 mM DTT, 0.05% NP-40, 0.05% Prionex, 6% glycerol, and 400 mM KF. […] Titration of test compounds in this assay was conducted in the presence of 1 μM retinol. All reactions were assembled in the dark under dim red light and incubated overnight at +4° C. wrapped in aluminum foil. TR-FRET signal was measured in the SpectraMax M5e Multimode Plate Reader (Molecular Device). […] The TR-FRET signal was expressed as the ratio of fluorescence intensity: Flu665/Flu620×10,000.

RBP4 = RBP4 (Homo sapiens (Human), UniProt P02753); assay: Scintillation proximity (SPA) RBP4 binding assay; conditions: 10 nM 3H-Retinol, 50 nM biotinylated RBP4
Description: Scintillation Proximity RBP4 Binding Assay
Untagged human RBP4 purified from urine of tubular proteinuria patients was purchased from Fitzgerald Industries International. It was biotinylated using the EZ-Link Sulfo-NHS-LC-Biotinylation kit from Pierce following the manufacturer's recommendations. Binding experiments were performed in 96-well plates (OptiPlate, PerkinElmer) in a final assay volume of 100 μl per well in SPA buffer (IX PBS, pH 7.4, 1 mM EDTA, 0.1% BSA, 0.5% CHAPS). The reaction mix contained 10 nM ^3H-Retinol (48.7 Ci/mmol; PerkinElmer), 0.3 mg/well Streptavidin-PVT beads, 50 nM biotinylated RBP4 and a test compound. Nonspecific binding was determined in the presence of 20 μM of unlabeled retinol. The reaction mix was assembled in the dark under dim red light. The plates were sealed with clear tape (TopSeal-A: 96-well microplate, PerkinElmer), wrapped in the aluminum foil, and allowed to equilibrate 6 hours at room temperature followed by overnight incubation at +4° C. Radiocounts were measured using a TopCount NXT counter (Packard Instrument Company).

Row | SMILES | IC50 (RBP4-TTR interaction) [nM] | IC50 (RBP4) [nM]
1 | N#Cc1ccc2nnc(C(=O)N3CCC(c4cccc(F)c4Cl)CC3)n2c1 [Compound 152, 3-(4-(2-chloro-3-fluorophenyl)piperidine-1-carbonyl)-[1,2,4]triazolo[4,3-a]pyridine-6-carbonitrile] | 27.8 | 3.1
2 | CC(C)C(=O)N1Cc2[nH]nc(C(=O)N3CCC(c4ccc(F)c(F)c4C(F)(F)F)CC3)c2C1 [Compound 85, 1-(3-(4-(3,4-difluoro-2-(trifluoromethyl)phenyl)piperidine-1-carbonyl)pyrrolo[3,4-c]pyrazol 5(1H,4H,6H)-yl)-2-methylpropan-1-one] | 22.4 | 17.9
3 | CC(=O)N1CCc2c(C(=O)N3CCC(c4cc(C(F)(F)F)cc(C(F)(F)F)c4)CC3)n[nH]c2C1 [Compound 153, 1-(3-(4-(3,5-bis(trifluoromethyl)phenyl)piperidine-1-carbonyl)-4,5-dihydro-1H-pyrazolo[3,4-c]pyridin-6(7H)-yl)ethanone] | 833 | 149
4 | CS(=O)(=O)N1CCc2[nH]nc(C(=O)N3CCC(c4cc(C(F)(F)F)cc(C(F)(F)F)c4)CC3)c2C1 [Compound 154, (4-(3,5-bis(trifluoromethyl)phenyl)piperidin-1-yl)(5-(methylsulfonyl)-4,5,6,7-tetrahydro-1H-pyrazolo[4,3-c]pyridin-3-yl)methanone] | 385 | 150
5 | O=C(c1n[nH]c2c1CN(C1COC1)CC2)N1CCC(c2cccc(F)c2Cl)CC1 [Compound 165, (4-(2-Chloro-3-fluorophenyl)piperidin-1-yl)(5-(oxetan-3-yl)-4,5,6,7-tetrahydro-1H-pyrazolo[4,3-c]pyridin-3-yl)methanone] | 64.8 | 15.6
6 | O=C(c1n[nH]c2c1CN(C1COC1)C2)N1CCC(c2ccc(F)c(F)c2C(F)(F)F)CC1 [Compound 98, (4-(3,4-difluoro-2-(trifluoromethyl)phenyl)piperidin-1-yl)(5-(oxetan-3-yl)-1,4,5,6-tetrahydropyrrolo[3,4-c]pyrazol-3-yl) methanone] | 74.1 | 11.8
7 | N#CN1Cc2[nH]nc(C(=O)N3CCC(c4ccc(F)c(F)c4C(F)(F)F)CC3)c2C1 [Compound 110, 3-(4-(3,4-difluoro-2-(trifluoromethyl)phenyl)piperidine-1-carbonyl)-4,6-dihydropyrrolo[3,4-c]pyrazole-5(1H)-carbonitrile] | 15.4 | 15.6
8 | CC(C)(C)CN1CCc2[nH]nc(C(=O)N3CCC(c4ccc(F)c(F)c4C(F)(F)F)CC3)c2C1 [Compound 90, (4-(3,4-difluoro-2-(trifluoromethyl)phenyl)piperidin-1-yl)(5-neopentyl-4,5,6,7-tetrahydro-1H-pyrazolo[4,3-c]pyridin-3-yl)methanone methanone] | 42.9 | 14.4
9 | CC(=O)N1CCc2c(C(=O)N3CCC(c4cc(F)ccc4C(F)(F)F)CC3)n[nH]c2C1 [Compound 140, 1-(3-(4-(5-fluoro-2-(trifluoromethyl)phenyl)piperidine-1-carbonyl)-4,5-dihydro-1H-pyrazolo[3,4-c]pyridin-6(7H)-yl)ethanone] | 21.9 | 9.28
10 | N#CN1CCc2c(C(=O)N3CCC(c4ccc(F)c(F)c4C(F)(F)F)CC3)n[nH]c2C1 [Compound 120, 3-(4-(3,4-Difluoro-2-(trifluoromethyl)phenyl)piperidine-1-carbonyl)-1,4,5,7-tetrahydro-6H-pyrazolo[3,4-c]pyridine-6-carbonitrile] |  | 3.45
11 | O=C(c1n[nH]c2c1CN(C(=O)N1CCNCC1)C2)N1CCC(c2ccc(F)c(F)c2C(F)(F)F)CC1 [Compound 169, (4-(3,4-Difluoro-2-(trifluoromethyl)phenyl)piperidin-1-yl)(5-(piperazine-1-carbonyl)-1,4,5,6-tetrahydropyrrolo[3,4-c]pyrazol-3-yl)methanone] | 55.8 | 33
12 | O=C(c1n[nH]c2c1CN(CC(F)(F)F)CC2)N1CCC(c2cccc(F)c2C(F)(F)F)CC1 [Compound 71, (4-(3-Fluoro-2-(trifluoromethyl)phenyl)piperidin-1-yl)(5-(2,2,2-trifluoroethyl)-4,5,6,7-tetrahydro-1H-pyrazolo[4,3-c]pyridin-3-yl)methanone] | 52.6 | 17.1
13 | CS(=O)(=O)N1CCc2[nH]nc(C(=O)N3CCC(c4cc(F)ccc4Cl)CC3)c2C1 [Compound 144, (4-(2-chloro-5-fluorophenyl)piperidin-1-yl)(5-(methylsulfonyl)-4,5,6,7-tetrahydro-1H-pyrazolo[4,3-c]pyridin-3-yl)methanone] | 70.3 | 6.17
14 | O=C(c1n[nH]c2c1CCN(CC1CC1)C2)N1CCC(c2ccc(F)c(F)c2C(F)(F)F)CC1 [Compound 118, (6-(Cyclopropylmethyl)-4,5,6,7-tetrahydro-1Hpyrazolo[3,4-c]pyridin-3-yl)(4-(3,4-difluoro-2-(trifluoromethyl)phenyl)piperidin-1-yl)methanone] | 14.2 | 9.39
15 | CC(=O)N1CCc2c(C(=O)N3CCC(c4cccc(F)c4Cl)CC3)n[nH]c2C1 [Compound 150, 1-(3-(4-(2-chloro-3-fluorophenyl)piperidine-1-carbonyl)-4,5-dihydro-1H-pyrazolo[3,4-c]pyridin-6(7H)-yl)ethanone] | 23.7 | 4.84
16 | CC(=O)N1CCc2c(C(=O)N3CCC(c4cc(F)ccc4Cl)CC3)n[nH]c2C1 [Compound 143, 1-(3-(4-(2-chloro-5-fluorophenyl)piperidine-1-carbonyl)-4,5-dihydro-1H-pyrazolo[3,4-c]pyridin-6(7H)-yl)ethanone] | 52.3 | 8.83
17 | O=C(c1n[nH]c2c1CCN(CCC(F)(F)F)C2)N1CCC(c2ccc(F)c(F)c2C(F)(F)F)CC1 [Compound 119, (4-(3,4-Difluoro-2(trifluoromethyl)phenyl)piperidin-1-yl)(6-(3,3,3-trifluoropropyl)-4,5,6,7-tetrahydro-1H-pyrazolo[3,4-c]pyridin-3-yl)methanone] | 39.4 | 10.7
18 | CCN1CCc2c(C(=O)N3CCC(c4cccc(F)c4C(F)(F)F)CC3)n[nH]c2C1 [Compound 75, (6-Ethyl-4,5,6,7-tetrahydro-1H-pyrazolo[3,4-c]pyridin-3-yl)(4-(3-fluoro-2-(trifluormethyl)phenyl)piperidin-1-yl)methanone] | 34 | 6.95
19 | CS(=O)(=O)N1CCc2[nH]nc(C(=O)N3CCC(c4cccc(F)c4C(F)(F)F)CC3)c2C1 [Compound 64, (4-(3-Fluoro-2-(trifluoromethyl)phenyl)piperidin-1-yl)(5-(methylsulfonyl)-4,5,6,7-tetrahydro-1H-pyrazolo[4,3-c]pyridin-3-yl)methanone] | 20.6 | 5.36
20 | CC(C)(C)CN1CCc2c(C(=O)N3CCC(c4ccc(F)c(F)c4C(F)(F)F)CC3)n[nH]c2C1 [Compound 126, (4-(3,4-Difluoro-2(trifluoromethyl)phenyl)piperidin-1-yl)(6-neopentyl-4,5,6,7-tetrahydro-1H-pyrazolo[3,4-c]pyridin-3-yl)methanone] | 170 | 17
21 | O=C(O)CN1CCc2c(C(=O)N3CCC(c4ccc(F)c(F)c4C(F)(F)F)CC3)n[nH]c2C1 [Compound 115, 2-(3-(4-(3,4-Difluoro-2-(trifluoromethyl)phenyl)piperidine-1-carbonyl)-1,4,5,7-tetrahydro-6H-pyrazolo[3,4-c]pyridin-6-yl)acetic acid] | 109 | 18.9
22 | N#CN1CCc2[nH]nc(C(=O)N3CCC(c4cccc(F)c4C(F)(F)F)CC3)c2C1 [Compound 70, 3-(4-(3-Fluoro-2-(trifluoromethyl)phenyl)piperidine-1-carbonyl)-6,7-dihydro-1H-pyrazolo[4,3-c]pyridine-5(4H)-carbonitrile] | 37.5 | 
23 | N#CN1CCc2c(C(=O)N3CCC(c4cccc(F)c4C(F)(F)F)CC3)n[nH]c2C1 [Compound 78, 3-(4-(3-Fluoro-2-(trifluoromethyl)phenyl)piperidine-1-carbonyl)-4,5-dihydro-1H-pyrazolo[3,4-c]pyridine-6(7H)-carbonitrile] |  | 9.5
24 | O=C(c1n[nH]c2c1CN(C(=O)N1CCCCC1)C2)N1CCC(c2ccc(F)c(F)c2C(F)(F)F)CC1 [Compound 128, (4-(3,4-Difluoro-2-(trifluoromethyl)phenyl)piperidin-1-yl)(5-(piperidine-1-carbonyl)-1,4,5,6 tetrahydropyrrolo[3,4-c]pyrazol-3-yl)methanone] | 32.4 | 
